# Test results from paper PMC10836395, “Investigation of how gate residues in the main channel affect the catalytic activity of Scytalidium thermophilum catalase” (Acta Crystallographica. Section D, Structural Biology, 2024).
# Where a chain is given by its changes, count along the chain named. Names may count otherwise. Read-outs that look alike come from different tables or passages of the source.
# B1: T188F (Mycothermus thermophilus; T207F) (protein)
# chain: TCPFADPAALYSRQDTTSGQSPLAAYEVDDSTGYLTSDVGGPIQDQTSLKAGIRGPTLLEDFMFRQKIQHFDHERVPERAVHARGAGAHGTFTSYADWSNITAASFLNATGKQTPVFVRFSTVAGSRGSADTARDVHGFATRFYTDEGNFDIVGNNIPVFFIQDAIQFPDLIHSVKPRPDNEIPQAAFAHDSAWDFFSQQPSTMHTLFWAMSGHGIPRSYRHMDGFGVHTFRFVKDDGSSKLIKWHFKSRQGKASLVWEEAQVLSGKNADFHRQDLWDAIESGNGPEWDVCVQIVDESQAQAFGFDLLDPTKIIPEEYAPLTKLGLLKLDRNPTNYFAETEQVMFQPGHIVRGIDFTEDPLLQGRLFSYLDTQLNRNGGPNFEQLPINMPRVPIHNNNRDGAGQMFIHRNKYPYTPNTLNSGYPRQANQNAGRGFFTAPGRTASGALVREVSPTFNDHWSQPRLFFNSLTPVEQQFLVNAMRFEISLVKSEEVKKNVLTQLNRVSHDVAVRVAAAIGLGAPDADDTYYHNNKTAGVSIVGSGPLPTIKTLRVGILATTSESSALDQAAQLRTRLEKDGLVVTVVAETLREGVDQTYSTADATGFDGVVVVDGAAALFASTASSPLFPTGRPLQIFVDAYRWGKPVGVCGGKSSEVLDAADVPEDGDGVYSEESVDMFVEEFEKGLATFRFTDRFALDS
# notes: recombinant, pET-28-TEV-CATPO; contains heme b; Rz 0.8
# B2: E484A (Mycothermus thermophilus; E503A) (protein)
# chain: B1 chain with F188T, E484A
# notes: as for B1
# B3: E484D (Mycothermus thermophilus; E503D) (protein)
# chain: B1 chain with F188T, E484D
# notes: recombinant, pET-28-TEV-CATPO; contains heme d; Rz 0.8
# What was measured:
# CATPO T188A variant = CATPO T188A variant (Scytalidium thermophilum (Humicola insolens), UniProt M4GGR5, T207A); experiment: biochemical
# CATPO T188I variant = CATPO T188I variant (Scytalidium thermophilum (Humicola insolens), UniProt M4GGR5, T207I); experiment: biochemical
# CATPO E484D variant = CATPO E484D variant (Scytalidium thermophilum (Humicola insolens), UniProt M4GGR5, E503D); experiment: biochemical
# CATPO T188F variant = CATPO T188F variant (Scytalidium thermophilum (Humicola insolens), UniProt M4GGR5, T207F); experiment: biochemical
# CATPO E484A variant = CATPO E484A variant (Scytalidium thermophilum (Humicola insolens), UniProt M4GGR5, E503A); experiment: biochemical
# CATPO T188D variant = CATPO T188D variant (Scytalidium thermophilum (Humicola insolens), UniProt M4GGR5, T207D); experiment: biochemical
# CATPO E484I variant = CATPO E484I variant (Scytalidium thermophilum (Humicola insolens), UniProt M4GGR5, E503I); experiment: biochemical
# CATPO = CATPO (Scytalidium thermophilum (Humicola insolens), UniProt M4GGR5); experiment: Inhibition of catechol oxidation; type: biochemical; settings: for inhibition type: catechol oxidase activity of wild-type CATPO, Lineweaver–Burk
# [1] = substrate: Oc1ccc(O)cc1; experiment: Spectrophotometric phenol oxidase assay without H2O2 at pH 7.0 and 60 °C, initial rates fitted to the Michaelis-Menten equation.; type: biochemical
# Protocol: (§1) All inhibition assays were performed in triplicate.
# [2] = substrate: Cc1ccc(O)c(O)c1; experiment: as above; type: biochemical
# Protocol: as §1
# [3] = substrate: CC(C)(C)c1ccc(O)c(O)c1; experiment: as above; type: biochemical
# Protocol: as §1
# [4] = substrate: Oc1ccccc1O; experiment: Phenol oxidase activity (H2O2-independent) measured spectrophotometrically by product formation at pH 7.0, 60 C, Michaelis-Menten fit.; type: biochemical
# Protocol: as §1
# [5] = substrate: CCn1c(=NN=c2sc3cc(S(=O)(=O)O)ccc3n2CC)sc2cc(S(=O)(=O)O)ccc21; experiment: purified protein, by the assay type; settings: 60.0 °C
# [6] = catechol oxidation by CATPO, catechol 1 to 100 mM, read-out: K i
# CATPO E484D variant, sequence (M4GGR5 entry or part of it E503D): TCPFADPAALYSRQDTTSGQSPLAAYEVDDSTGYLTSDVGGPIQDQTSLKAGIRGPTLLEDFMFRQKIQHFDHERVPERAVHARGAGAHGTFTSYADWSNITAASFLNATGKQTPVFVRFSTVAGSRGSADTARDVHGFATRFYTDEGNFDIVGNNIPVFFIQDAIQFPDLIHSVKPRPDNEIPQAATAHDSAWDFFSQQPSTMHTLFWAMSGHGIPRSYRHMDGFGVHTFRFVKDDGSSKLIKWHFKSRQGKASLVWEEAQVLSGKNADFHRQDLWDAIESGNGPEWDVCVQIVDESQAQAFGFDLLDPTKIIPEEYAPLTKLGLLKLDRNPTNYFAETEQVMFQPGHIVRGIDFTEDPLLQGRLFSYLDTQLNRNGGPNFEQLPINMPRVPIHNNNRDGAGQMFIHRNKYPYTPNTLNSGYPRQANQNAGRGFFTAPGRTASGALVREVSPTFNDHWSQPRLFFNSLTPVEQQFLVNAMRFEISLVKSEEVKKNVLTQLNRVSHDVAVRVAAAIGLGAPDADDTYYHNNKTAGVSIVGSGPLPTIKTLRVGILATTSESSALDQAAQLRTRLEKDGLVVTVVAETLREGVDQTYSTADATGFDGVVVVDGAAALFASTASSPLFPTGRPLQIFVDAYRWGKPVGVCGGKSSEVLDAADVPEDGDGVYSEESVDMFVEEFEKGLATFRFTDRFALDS
# CATPO T188D variant, sequence (M4GGR5 entry or part of it T207D): as the sequence (M4GGR5 entry or part of it E503D) above
# CATPO E484I variant, sequence (M4GGR5 entry or part of it E503I): as the sequence (M4GGR5 entry or part of it E503D) above
# CATPO T188A variant, sequence (M4GGR5 entry or part of it T207A): as the sequence (M4GGR5 entry or part of it E503D) above
# CATPO, sequence (M4GGR5 entry or part of it): as the sequence (M4GGR5 entry or part of it E503D) above
# CATPO T188F variant, sequence (M4GGR5 entry or part of it T207F): as the sequence (M4GGR5 entry or part of it E503D) above
# CATPO T188I variant, sequence (M4GGR5 entry or part of it T207I): as the sequence (M4GGR5 entry or part of it E503D) above
# CATPO E484A variant, sequence (M4GGR5 entry or part of it E503A): as the sequence (M4GGR5 entry or part of it E503D) above
Molecule,Ki (CATPO T188A variant),Ki (CATPO T188I variant),Ki (CATPO E484D variant),Ki (CATPO T188F variant),Ki (CATPO E484A variant),Ki (CATPO T188D variant),Ki (CATPO E484I variant),inhibition type (CATPO),Ki (CATPO; [6]),Km [1],Km [2],Km [3],Km [4],kcat [4],kcat/Km [4],Km [5],also measured
"Nc1nc[nH]n1 [3TR, 3-amino-1,2,4-triazole]",20 ± 0.2 mM,42 ± 4 mM,22 ± 3.2 mM,54 ± 4.5 mM,65 ± 5.5 mM,41 ± 4.1 mM,40 ± 4 mM,competitive,21 ± 1 mM,–,–,–,–,–,–,–,–
"O=C(NO)c1ccccc1O [Salicylhydroxamic acid, salicylhydroxamic acid]",2.2 ± 0.4 mM,5.4 ± 0.9 mM,2 ± 0.4 mM,5.5 ± 0.7 mM,6.7 ± 1.1 mM,5.4 ± 0.4 mM,5.4 ± 0.5 mM,competitive,–,–,–,–,–,–,–,–,Ki (CATPO): 2.2 ± 0.4 mM
"[N-]=[N+]=[N-].[Na+] [Sodium azide, sodium azide]",–,–,–,–,–,–,–,competitive,42 ± 1.2 mM,–,–,–,–,–,–,–,"Ki (CATPO T188A variant; catechol oxidation by T188A, read-out: K i): 42 ± 1.4 mM; Ki (CATPO T188I variant; catechol oxidation by T188I, read-out: K i): 60 ± 6 mM; Ki (CATPO E484D variant; catechol oxidation by E484D, read-out: K i): 41 ± 4.1 mM; Ki (CATPO T188F variant; catechol oxidation by T188F, read-out: K i): 62 ± 2.5 mM; Ki (CATPO E484A variant; catechol oxidation by E484A, read-out: K i): 74 ± 4.8 mM; Ki (CATPO T188D variant; catechol oxidation by T188D, read-out: K i): 55 ± 5 mM; Ki (CATPO E484I variant; catechol oxidation by E484I, read-out: K i): 56 ± 1.6 mM"
B1,–,–,–,–,–,–,–,–,–,42 ± 1.0 mM,32 ± 1.0 mM,34 ± 0.4 mM,30 ± 1.0 mM,30600 ± 1800 s⁻¹,1.02e+06 ± 22000 M⁻¹ s⁻¹,45 ± 0.5 mM,–
B2,–,–,–,–,–,–,–,–,–,43 ± 1.2 mM,33 ± 1.0 mM,33 ± 0.5 mM,30 ± 1.0 mM,–,1.45e+06 ± 13000 M⁻¹ s⁻¹,46 ± 1.0 mM,–
B3,–,–,–,–,–,–,–,–,–,46 ± 0.8 mM,36 ± 0.1 mM,38 ± 0.5 mM,35 ± 0.5 mM,7400 ± 296 s⁻¹,210000 ± 10500 M⁻¹ s⁻¹,53 ± 1.0 mM,–
